Measurements: patent US8426429B2, “2-amino-quinazoline derivatives useful as inhibitors of β-secretase (BACE)” (Jansssen Pharmaceutica N.V., priority 2004, dated 2013)

Biological target: T1, β-secretase (BACE) (Homo sapiens, UniProt P56817)
T1 construct: purchased Panvera
Test: BACE FS1 % Inhibition Assay
Assay type: biochemical
Summary of the method: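 Percent inhibition per compound concentration was referenced to vehicle-treated enzyme and no-enzyme wells. Enzyme at a 4 μg/mL working stock plus compound was mixed for 20 min at room temperature before the FS1 substrate (300 μg/mL working stock) was added for a 1 h room-temperature reaction.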

T1 sequence (P56817 46-501): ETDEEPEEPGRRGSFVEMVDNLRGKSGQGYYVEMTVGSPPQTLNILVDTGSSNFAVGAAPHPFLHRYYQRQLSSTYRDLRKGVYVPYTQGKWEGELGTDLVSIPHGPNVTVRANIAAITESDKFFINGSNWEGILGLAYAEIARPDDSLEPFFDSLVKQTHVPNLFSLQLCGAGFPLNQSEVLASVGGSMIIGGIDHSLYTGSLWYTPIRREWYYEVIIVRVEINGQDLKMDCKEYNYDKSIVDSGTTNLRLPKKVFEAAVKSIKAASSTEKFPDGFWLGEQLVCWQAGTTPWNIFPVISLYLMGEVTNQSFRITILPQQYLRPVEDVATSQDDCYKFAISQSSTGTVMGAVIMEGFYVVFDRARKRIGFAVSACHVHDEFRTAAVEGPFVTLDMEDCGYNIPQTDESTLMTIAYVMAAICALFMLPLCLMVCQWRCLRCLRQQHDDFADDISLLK

SMILES	% Inhibition (FS) (0.3 μM test compound) [%]	% Inhibition (FS) (1 μM test compound) [%]	% Inhibition (FS) (3 μM test compound) [%]	also measured
Cc1ccc(C(CCC(=O)N(C)C2CCCCC2)N2Cc3cc(Oc4ccccc4)ccc3N=C2N)cc1 (centres unmarked) [Compound 421]	<30	71	111	
Cc1ccccc1-c1ccc2c(c1)CN(CCNC(=O)C(C)(C)C)C(N)=N2 [Compound 660]	63	86	105	
NC1=Nc2ccc(Oc3ccccc3)cc2CN1Cc1cccc(CNC(=O)C(F)(F)F)c1 [Compound 307]	<30	<30	<30	
CN(C)Cc1ccccc1-c1ccc2c(c1)CN(Cc1cccc(C(=O)N(C)C3CCCCC3)c1)C(N)=N2 [Compound 172]	<30	<30	<30	
CN(C(=O)c1cccc(CN2Cc3cc(-c4cn[nH]c4)ccc3N=C2N)c1)C1CCCCC1 [Compound 161]	<30	<30	<30	
CN(C(=O)c1cccc(C(CC2CCCCC2)N2Cc3cc(Oc4ccccc4)ccc3N=C2N)c1)C1CCCCC1 (centres unmarked) [Compound 310]	<30	<30	57	
NC(=O)c1ccccc1-c1ccc2c(c1)CN(CCNC(=O)C1CCCCC1)C(N)=N2 [Compound 543]	<30	<30	<30	
CN(CCc1ccccc1)C(=O)CC[C@@H](C1CCCCC1)N1Cc2cc(-c3ccccc3F)ccc2N=C1N [Compound 727]				% Inhibition (FS) (0.3 μM compound, FS1 substrate): 46%; % Inhibition (FS) (1 μM compound, FS1 substrate): 80%
CN(Cc1csc(-c2ccccc2)n1)C(=O)CC[C@@H](C1CCCCC1)N1Cc2cc(-c3ccccc3F)ccc2N=C1N [Compound 722]				% Inhibition (FS) (0.3 μM compound, FS1 substrate): 35%; % Inhibition (FS) (1 μM compound, FS1 substrate): 35%; % Inhibition (FS) (3 μM compound, FS1 substrate): 78%
CC(C)CC(=O)NCCN1Cc2cc(Oc3ccccc3)ccc2N=C1N [Compound 190]	51	86	101	
NC1=Nc2ccc(Oc3ccccc3)cc2CN1C(CNC(=O)C12CC3CC(CC(C3)C1)C2)C1CCCCC1 (centres unmarked) [Compound 312]	74	103	115	
CN(C(=O)c1ncoc1C(Cc1ccccc1)N1Cc2cc(Oc3ccccc3)ccc2N=C1N)C1CCCCC1 (centres unmarked) [Compound 559]	<30	<30	<30	
CCCC(=O)NCCN1Cc2cc(-c3ccccc3F)ccc2N=C1N [Compound 645]	67	57	91	
CCCC(CCC)C(=O)N1CCC(CN2Cc3cc(Oc4ccccc4)ccc3N=C2N)CC1 [Compound 526]	<30	36	98	
COc1cccc(OC)c1Oc1ccc2c(c1)CN(Cc1cccc(C(=O)N(C)C3CCCCC3)c1)C(N)=N2 [Compound 477]	<30	<30	<30	
NC1=Nc2ccc(-c3ccccc3-c3ccccc3)cc2CN1CCNC(=O)C1CCCCC1 [Compound 544]	32	<30	51	
NC1=Nc2ccc(Oc3ccccc3)cc2CN1CC(NC(=O)C1CCCCC1)C1CCCCC1 (centres unmarked) [Compound 637]	<30	<30	73	
COc1ccc(F)cc1-c1ccc2c(c1)CN(CCNC(=O)C1CCCCC1)C(N)=N2 [Compound 631]	<30	<30	48	

SMILES	% Inhibition (FS) (0.3 μM test compound) [%]	% Inhibition (FS) (1 μM test compound) [%]	% Inhibition (FS) (3 μM test compound) [%]	also measured
NC1=Nc2ccc(Oc3ccccc3)cc2CN1[C@@H](CCC(=O)N[C@@H](COCc1ccccc1)C(=O)O)C1CCOCC1 [Compound 782]				% Inhibition (FS) (0.3 μM compound, FS1 substrate): 104%; % Inhibition (FS) (1 μM compound, FS1 substrate): 107%; % Inhibition (FS) (3 μM compound, FS1 substrate): 113%
C=CCc1cccc(C)c1Oc1ccc2c(c1)CN(Cc1cccc(C(=O)N(C)C3CCCCC3)c1)C(N)=N2 [Compound 480]	<30	<30	38	
CCCc1cccc(C)c1Oc1ccc2c(c1)CN(Cc1cccc(C(=O)N(C)C3CCCCC3)c1)C(N)=N2 [Compound 482]	<30	<30	43	
COC(=O)C(COCc1ccccc1)N(C)C(=O)CCC(C1CCCCC1)N1Cc2cc(Oc3ccccc3)ccc2N=C1N (centres unmarked) [Compound 780]				% Inhibition (FS) (0.3 μM compound, FS1 substrate): 69%; % Inhibition (FS) (1 μM compound, FS1 substrate): 97%
NC1=Nc2ccc(Oc3ccccc3)cc2CN1C(c1ccccc1)c1cccc(C(=O)N(C2CCCCC2)C2CCCCC2)c1 (centres unmarked) [Compound 132]			54	% Inhibition (FS) (10 μM test compound): 118%
CCCC(=O)NCCN1Cc2cc(-c3ccccc3Cl)ccc2N=C1N [Compound 652]	31	63	91	
CN(C(=O)c1ncoc1CN1Cc2cc(Oc3ccccc3)ccc2N=C1N)C1CCCCC1 [Compound 641]	<30	<30	48	
COc1ccccc1Oc1ccc2c(c1)CN(Cc1cccc(C(=O)N(C)C3CCCCC3)c1)C(N)=N2 [Compound 232]	<30	<30	31	
CC(C)CCC(=O)NCCN1Cc2cc(-c3cnc4ccccc4c3)ccc2N=C1N [Compound 675]				% Inhibition (FS) (0.3 μM compound, FS1 substrate): 35%; % Inhibition (FS) (1 μM compound, FS1 substrate): <30%; % Inhibition (FS) (3 μM compound, FS1 substrate): <30%
COc1ccccc1-c1ccc2c(c1)CN(CCNC(=O)C1(C(N)=O)CC1)C(N)=N2 [Compound 488]	<30	<30	<30	
CC(C)COc1ccc2c(c1)CN(Cc1cccc(C(=O)N(C)C3CCCCC3)c1)C(N)=N2 [Compound 518]	<30	<30	<30	
CSc1ccc(Sc2ccc3c(c2)CN(Cc2cccc(C(=O)N(C)C4CCCCC4)c2)C(N)=N3)cc1 [Compound 413]	<30	<30	53	
Cc1ccc(-c2ccc3c(c2)CN(CCNC(=O)C2CCCCC2)C(N)=N3)cc1 [Compound 628]	<30	<30	32	
CN(C(=O)c1ccc2c(c1)C(N1Cc3cc(Oc4ccccc4)ccc3N=C1N)c1ccccc1-2)C1CCCCC1 (centres unmarked) [Compound 118]				% Inhibition (FS) (3 μM test compound, 3 µM): 48%; % Inhibition (FS) (10 μM test compound, 10 µM): 91%
C=CCc1cccc(OC)c1Oc1ccc2c(c1)CN(Cc1cccc(C(=O)N(C)C3CCCCC3)c1)C(N)=N2 [Compound 481]	<30	<30	32	
CCCC(CCC)C(=O)N1CCCC(N2Cc3cc(Oc4ccccc4)ccc3N=C2N)C1 (centres unmarked) [Compound 612]	<30	34	<30	
COc1cccc(COc2ccc3c(c2)CN(Cc2cccc(C(=O)N(C)C4CCCCC4)c2)C(N)=N3)c1 [Compound 514]	<30	<30	<30	
CCCC(CCC)C(=O)N1CCCCC(N2Cc3cc(Oc4ccccc4)ccc3N=C2N)C1 (centres unmarked) [Compound 552]	<30	<30	36	
